The target in assay [1] is T1, human TRPV1 (Homo sapiens (Human), UniProt Q8NER1). Put plainly: Acid Activation Assay (pH 5.0, intracellular Ca2+, FLIPR). The assay is classed as cell-based. Conditions: percentage of the maximal pH 5.0-induced response remaining; recombinant HEK293 hTRPV1 cells; maximum concentration tested 37.5 μM. An outline of the steps: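 HEK293 cells stably expressing recombinant hTRPV1, loaded with Calcium-4 dye 90-120 min at 25° C. Compounds added over a 12-point half-log range (top 37.5 μM), then pH 5.0 DPBS/MES challenge after 3 min; FLIPR peak fluorescence over baseline given as % of maximal pH 5.0 response.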

In assay [2] the target is T1, human TRPV1. Put plainly: Capsaicin Activation Assay (intracellular Ca2+, FLIPR). Format: cell-based. As to conditions: recombinant HEK293 cells expressing hTRPV1, 50 nM capsaicin. The procedure, abridged: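 Stably transfected HEK293 cells expressing human TRPV1 cDNA, plated the day before in poly-D-lysine plates. Compounds serially diluted from 10 mM DMSO stocks; intracellular Ca2+ fluorescence read on FLIPR at 1 to 5 second intervals.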

T1 sequence (Q8NER1 whole entry): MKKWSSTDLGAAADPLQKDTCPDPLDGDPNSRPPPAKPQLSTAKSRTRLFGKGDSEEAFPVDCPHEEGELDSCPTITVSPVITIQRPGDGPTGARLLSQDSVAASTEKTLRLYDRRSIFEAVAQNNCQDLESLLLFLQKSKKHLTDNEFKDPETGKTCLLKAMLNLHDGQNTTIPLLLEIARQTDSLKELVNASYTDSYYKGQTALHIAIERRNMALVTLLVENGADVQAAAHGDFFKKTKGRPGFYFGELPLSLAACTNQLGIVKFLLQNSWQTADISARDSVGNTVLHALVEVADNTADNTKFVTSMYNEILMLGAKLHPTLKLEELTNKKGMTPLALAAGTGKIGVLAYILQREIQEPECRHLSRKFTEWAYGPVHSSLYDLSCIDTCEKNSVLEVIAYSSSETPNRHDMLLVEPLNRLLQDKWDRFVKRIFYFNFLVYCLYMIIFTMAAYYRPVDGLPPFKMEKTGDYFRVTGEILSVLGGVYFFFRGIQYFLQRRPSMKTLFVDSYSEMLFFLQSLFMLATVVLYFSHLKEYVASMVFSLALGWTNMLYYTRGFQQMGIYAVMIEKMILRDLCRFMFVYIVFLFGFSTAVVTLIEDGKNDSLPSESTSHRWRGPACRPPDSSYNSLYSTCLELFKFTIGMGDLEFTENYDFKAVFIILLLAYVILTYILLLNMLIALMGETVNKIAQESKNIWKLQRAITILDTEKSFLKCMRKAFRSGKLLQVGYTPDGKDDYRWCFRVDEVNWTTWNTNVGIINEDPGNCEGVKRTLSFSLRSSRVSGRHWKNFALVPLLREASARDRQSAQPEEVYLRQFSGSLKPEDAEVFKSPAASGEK

Consider `CN1Cc2ccc(NC(=O)N[C@@H]3CC(CF)(CF)Oc4cc(F)ccc43)cc2NC1=O` [Example 209, 1-[(4R)-7-fluoro-2,2-bis(fluoromethyl)-3,4-dihydro-2H-chromen-4-yl]-3-(3-methyl-2-oxo-1,2,3,4-tetrahydroquinazolin-7-yl)urea], for which the “human TRPV1 H^+ (max % remain)” value at human TRPV1 [1] worked out at 57%. Also, at human TRPV1 [2], the IC50 (usually the concentration at which inhibition is half-maximal) worked out at 290 nM.

For the molecule `O=C1CCc2ccc(NC(=O)N[C@@H]3CC(CF)(CF)Oc4cc(OC(F)(F)F)ccc43)cc2N1` [Example 211, 1-[(4R)-2,2-bis(fluoromethyl)-7-(trifluoromethoxy)-3,4-dihydro-2H-chromen-4-yl]-3-(2-oxo-1,2,3,4-tetrahydroquinolin-7-yl)urea], the “human TRPV1 H^+ (max % remain)” value at human TRPV1 [1] was found to be 55%. The IC50 at human TRPV1 [2] was 20 nM.

For the molecule `C[C@@]1(C(F)F)C[C@@H](NC(=O)Nc2ccc3c(c2)NC(=O)CC3)c2ccc(Cl)cc2O1` [Example 212, 1-[(2S,4R)-7-chloro-2-(difluoromethyl)-2-methyl-3,4-dihydro-2H-chromen-4-yl]-3-(2-oxo-1,2,3,4-tetrahydroquinolin-7-yl)urea], at human TRPV1 [1], the “human TRPV1 H^+ (max % remain)” value is 34%. Moreover, the IC50 on human TRPV1 [2] is 61 nM.

As to `O=C1CCc2ccc(NC(=O)N[C@@H]3CC(CF)(CF)Oc4ccc(F)cc43)cc2N1` [Example 213, 1-[(4R)-6-fluoro-2,2-bis(fluoromethyl)-3,4-dihydro-2H-chromen-4-yl]-3-(2-oxo-1,2,3,4-tetrahydroquinolin-7-yl)urea], the “human TRPV1 H^+ (max % remain)” value at human TRPV1 [1] is listed as 42%. The 50% inhibitory concentration (IC50) on human TRPV1 [2] was 170 nM.

On to `O=C1CCc2ccc(NC(=O)N[C@@H]3CC(CF)(CF)Oc4c(F)cc(F)cc43)cc2N1` [Example 214, 1-[(4R)-6,8-difluoro-2,2-bis(fluoromethyl)-3,4-dihydro-2H-chromen-4-yl]-3-(2-oxo-1,2,3,4-tetrahydroquinolin-7-yl)urea], for which the “human TRPV1 H^+ (max % remain)” value on human TRPV1 [1] is 40%. Further, the concentration for half-maximal inhibition (IC50) on human TRPV1 [2] worked out at 180 nM.

For `O=C1CCc2ccc(NC(=O)N[C@@H]3CC(CF)(CF)Oc4ccccc43)cc2N1` [Example 215, 1-[(4R)-2,2-bis(fluoromethyl)-3,4-dihydro-2H-chromen-4-yl]-3-(2-oxo-1,2,3,4-tetrahydroquinolin-7-yl)urea], at human TRPV1 [1], the “human TRPV1 H^+ (max % remain)” value stood at 49%. At human TRPV1 [2], the IC50 was determined as 60 nM.

Take `O=C1CCc2ccc(NC(=O)N[C@@H]3CC(CF)(CF)Oc4c(F)cccc43)cc2N1` [Example 216, 1-[(4R)-8-fluoro-2,2-bis(fluoromethyl)-3,4-dihydro-2H-chromen-4-yl]-3-(2-oxo-1,2,3,4-tetrahydroquinolin-7-yl)urea]: the “human TRPV1 H^+ (max % remain)” value on human TRPV1 [1] is given as 50%. Besides, the IC50 on human TRPV1 [2] turned out to be 220 nM.

Take `O=C1CCc2ccc(NC(=O)N[C@H]3CC(CF)(CF)Oc4cc(Cl)ccc43)cc2N1` [Example 217, 1-[(4S)-7-chloro-2,2-bis(fluoromethyl)-3,4-dihydro-2H-chromen-4-yl]-3-(2-oxo-1,2,3,4-tetrahydroquinolin-7-yl)urea]: the “human TRPV1 H^+ (max % remain)” value at human TRPV1 [1] is 50%. Also, the IC50 on human TRPV1 [2] was 430 nM.

For `CC1(C)C[C@@H](NC(=O)Nc2ccc3c(c2)NC(=O)CC3)c2cccc(C(F)(F)F)c2O1` [Example 218, 1-[(4R)-2,2-dimethyl-8-(trifluoromethyl)-3,4-dihydro-2H-chromen-4-yl]-3-(2-oxo-1,2,3,4-tetrahydroquinolin-7-yl)urea], the “human TRPV1 H^+ (max % remain)” value at human TRPV1 [1] turned out to be 101%. The IC50 at human TRPV1 [2] was found to be 3600 nM.

As for `CC1(C)C[C@@H](NC(=O)Nc2ccc3c(c2)NC(=O)CC3)c2cccc(F)c2O1` [Example 219, 1-[(4R)-8-fluoro-2,2-dimethyl-3,4-dihydro-2H-chromen-4-yl]-3-(2-oxo-1,2,3,4-tetrahydroquinolin-7-yl)urea], the “human TRPV1 H^+ (max % remain)” value on human TRPV1 [1] was 29%. For the same molecule, the 50% inhibitory concentration (IC50) on human TRPV1 [2] was 56 nM.

As for `O=C1CCc2ccc(NC(=O)N[C@@H]3CCOc4ccccc43)cc2N1` [Example 220, 1-[(4R)-3,4-dihydro-2H-chromen-4-yl]-3-(2-oxo-1,2,3,4-tetrahydroquinolin-7-yl)urea], the “human TRPV1 H^+ (max % remain)” value at human TRPV1 [1] is on record as 41%. In addition, on human TRPV1 [2], the half-maximal inhibitory concentration (IC50) was determined as 190 nM.

Regarding `CCC1(CC)C[C@@H](NC(=O)Nc2ccc3c(c2)NC(=O)CC3)c2ccccc2O1` [Example 223, 1-[(4R)-2,2-diethyl-3,4-dihydro-2H-chromen-4-yl]-3-(2-oxo-1,2,3,4-tetrahydroquinolin-7-yl)urea], the “human TRPV1 H^+ (max % remain)” value on human TRPV1 [1] was determined as 44%. The IC50 at human TRPV1 [2] came out at 37 nM.

On to `CCC1(CC)C[C@@H](NC(=O)Nc2ccc3c(c2)NC(=O)CC3)c2ccc(C(F)(F)F)cc2O1` [Example 224, 1-[(4R)-2,2-diethyl-7-(trifluoromethyl)-3,4-dihydro-2H-chromen-4-yl]-3-(2-oxo-1,2,3,4-tetrahydroquinolin-7-yl)urea], for which the “human TRPV1 H^+ (max % remain)” value on human TRPV1 [1] amounted to 44%. Moreover, the 50% inhibitory concentration (IC50) at human TRPV1 [2] was found to be 35 nM.

Turning to `CCC1(CC)C[C@@H](NC(=O)Nc2ccc3c(c2)NC(=O)CC3)c2ccc(Cl)cc2O1` [Example 225, 1-[(4R)-7-chloro-2,2-diethyl-3,4-dihydro-2H-chromen-4-yl]-3-(2-oxo-1,2,3,4-tetrahydroquinolin-7-yl)urea], at human TRPV1 [1], the “human TRPV1 H^+ (max % remain)” value was 12%. Moreover, the IC50 at human TRPV1 [2] stood at 130 nM.

As for `CCC1(CC)C[C@@H](NC(=O)Nc2ccc3c(c2)NC(=O)CC3)c2ccc(Cl)c(Cl)c2O1` [Example 226, 1-[(4R)-7,8-dichloro-2,2-diethyl-3,4-dihydro-2H-chromen-4-yl]-3-(2-oxo-1,2,3,4-tetrahydroquinolin-7-yl)urea], at human TRPV1 [1], the “human TRPV1 H^+ (max % remain)” value worked out at 12%. The half-maximal inhibitory concentration (IC50) on human TRPV1 [2] was 100 nM.

As to `CCCC1(CCC)C[C@@H](NC(=O)Nc2ccc3c(c2)NC(=O)CC3)c2cc(F)ccc2O1` [Example 227, 1-[(4R)-6-fluoro-2,2-dipropyl-3,4-dihydro-2H-chromen-4-yl]-3-(2-oxo-1,2,3,4-tetrahydroquinolin-7-yl)urea], the “human TRPV1 H^+ (max % remain)” value at human TRPV1 [1] is 19%. At human TRPV1 [2], the IC50 came out at 220 nM.

`O=C1CCc2ccc(NC(=O)N[C@@H]3CC4(CCC4)Oc4ccc(F)cc43)cc2N1` [Example 228, 1-[(4R)-6-fluoro-3,4-dihydrospiro[chromene-2,1′-cyclobutan]-4-yl]-3-(2-oxo-1,2,3,4-tetrahydroquinolin-7-yl)urea]: the “human TRPV1 H^+ (max % remain)” value at human TRPV1 [1] is 57%. Besides, the IC50 at human TRPV1 [2] is 120 nM.

Take `CCC1(CC)C[C@@H](NC(=O)Nc2ccc3c(c2)NC(=O)CC3)c2cc(F)ccc2O1` [Example 229, 1-[(4R)-2,2-diethyl-6-fluoro-3,4-dihydro-2H-chromen-4-yl]-3-(2-oxo-1,2,3,4-tetrahydroquinolin-7-yl)urea]: on human TRPV1 [1], the “human TRPV1 H^+ (max % remain)” value is listed as 36%. Moreover, the IC50 at human TRPV1 [2] was 74 nM.

Regarding `CCCC1(CCC)C[C@@H](NC(=O)Nc2ccc3c(c2)NC(=O)CC3)c2cccc(F)c2O1` [Example 230, 1-[(4R)-8-fluoro-2,2-dipropyl-3,4-dihydro-2H-chromen-4-yl]-3-(2-oxo-1,2,3,4-tetrahydroquinolin-7-yl)urea], the “human TRPV1 H^+ (max % remain)” value on human TRPV1 [1] is 24%. Besides, the IC50 on human TRPV1 [2] turned out to be 38 nM.

In the case of `O=C1CCc2ccc(NC(=O)N[C@@H]3CC(CF)(CF)Oc4c3ccc(Cl)c4F)cc2N1` [Example 231, 1-[(4R)-7-chloro-8-fluoro-2,2-bis(fluoromethyl)-3,4-dihydro-2H-chromen-4-yl]-3-(2-oxo-1,2,3,4-tetrahydroquinolin-7-yl)urea], the “human TRPV1 H^+ (max % remain)” value on human TRPV1 [1] came out at 55%. Besides, on human TRPV1 [2], the IC50 worked out at 76 nM.

On to `CC1(C)C[C@@H](NC(=O)Nc2ccc3c(c2)NC(=O)CC3)c2cc(F)ccc2O1` [Example 232, 1-[(4R)-6-fluoro-2,2-dimethyl-3,4-dihydro-2H-chromen-4-yl]-3-(2-oxo-1,2,3,4-tetrahydroquinolin-7-yl)urea], for which, at human TRPV1 [1], the “human TRPV1 H^+ (max % remain)” value was 32%. Further, the 50% inhibitory concentration (IC50) at human TRPV1 [2] stood at 140 nM.

Take `CC1(C)C[C@@H](NC(=O)Nc2ccc3c(c2)NC(=O)CC3)c2ccc(F)c(Cl)c2O1` [Example 233, 1-[(4R)-8-chloro-7-fluoro-2,2-dimethyl-3,4-dihydro-2H-chromen-4-yl]-3-(2-oxo-1,2,3,4-tetrahydroquinolin-7-yl)urea]: at human TRPV1 [1], the “human TRPV1 H^+ (max % remain)” value was 37%. Besides, on human TRPV1 [2], the concentration for half-maximal inhibition (IC50) is 350 nM.

With `O=C1CCc2ccc(NC(=O)N[C@H]3CCOc4cc(OC(F)(F)F)ccc43)cc2N1` [Example 234, 1-(2-oxo-1,2,3,4-tetrahydroquinolin-7-yl)-3-[(4S)-7-(trifluoromethoxy)-3,4-dihydro-2H-chromen-4-yl]urea], on human TRPV1 [1], the “human TRPV1 H^+ (max % remain)” value came to 27%. In addition, the IC50 at human TRPV1 [2] turned out to be 90 nM.

For `CC1(C)C[C@@H](NC(=O)Nc2ccc3c(c2)NC(=O)CC3)c2ccc(Cl)cc2O1` [Example 235, 1-[(4R)-7-chloro-2,2-dimethyl-3,4-dihydro-2H-chromen-4-yl]-3-(2-oxo-1,2,3,4-tetrahydroquinolin-7-yl)urea], on human TRPV1 [1], the “human TRPV1 H^+ (max % remain)” value is recorded as 29%. Besides, the IC50 at human TRPV1 [2] came out at 1300 nM.

In the case of `O=C1CCc2ccc(NC(=O)N[C@@H]3CCOc4cc(OC(F)(F)F)ccc43)cc2N1` [Example 236, 1-(2-oxo-1,2,3,4-tetrahydroquinolin-7-yl)-3-[(4R)-7-(trifluoromethoxy)-3,4-dihydro-2H-chromen-4-yl]urea], the “human TRPV1 H^+ (max % remain)” value at human TRPV1 [1] is listed as 27%. For the same molecule, the half-inhibitory concentration (IC50) on human TRPV1 [2] turned out to be 32 nM.

As to `COCC1(COC)C[C@@H](NC(=O)Nc2ccc3c(c2)NC(=O)CC3)c2cc(F)ccc2O1` [Example 237, 1-[(4R)-6-fluoro-2,2-bis(methoxymethyl)-3,4-dihydro-2H-chromen-4-yl]-3-(2-oxo-1,2,3,4-tetrahydroquinolin-7-yl)urea], the “human TRPV1 H^+ (max % remain)” value on human TRPV1 [1] is recorded as 52%. For the same molecule, on human TRPV1 [2], the half-maximal inhibitory concentration (IC50) stood at 150 nM.

The values are drawn from US8969325B2, “TRPV1 antagonists” (AbbVie Inc., priority 2011, dated 2015).
